Data as given in paper PMC5585349, “Biosynthesis of the nosiheptide indole side ring centers on a cryptic carrier protein NosJ” (Nature Communications, 2017).

What was measured:
NosI = NosI (Streptomyces actuosus, UniProt C6FX48); test: LC-HR-MS detection of MIA-AMP ([…]); type: biochemical
NosK = biological target: T1, NosK (Streptomyces actuosus, UniProt C6FX50); test: thioester hydrolysis, HPLC UV […] nm; type: biochemical; settings: CoA thioester hydrolysed
T1 construct: expressed in E. coli, purified
T1 sequence (C6FX50 entry or part of it): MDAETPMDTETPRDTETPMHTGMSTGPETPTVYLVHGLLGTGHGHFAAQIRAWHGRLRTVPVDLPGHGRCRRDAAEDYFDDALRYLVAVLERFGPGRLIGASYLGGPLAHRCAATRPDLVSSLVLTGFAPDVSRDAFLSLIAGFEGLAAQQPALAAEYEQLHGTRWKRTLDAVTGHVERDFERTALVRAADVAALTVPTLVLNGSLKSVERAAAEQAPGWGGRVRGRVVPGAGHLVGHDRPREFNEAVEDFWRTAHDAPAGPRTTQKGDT

Sequence of NosI (C6FX48 entry or part of it): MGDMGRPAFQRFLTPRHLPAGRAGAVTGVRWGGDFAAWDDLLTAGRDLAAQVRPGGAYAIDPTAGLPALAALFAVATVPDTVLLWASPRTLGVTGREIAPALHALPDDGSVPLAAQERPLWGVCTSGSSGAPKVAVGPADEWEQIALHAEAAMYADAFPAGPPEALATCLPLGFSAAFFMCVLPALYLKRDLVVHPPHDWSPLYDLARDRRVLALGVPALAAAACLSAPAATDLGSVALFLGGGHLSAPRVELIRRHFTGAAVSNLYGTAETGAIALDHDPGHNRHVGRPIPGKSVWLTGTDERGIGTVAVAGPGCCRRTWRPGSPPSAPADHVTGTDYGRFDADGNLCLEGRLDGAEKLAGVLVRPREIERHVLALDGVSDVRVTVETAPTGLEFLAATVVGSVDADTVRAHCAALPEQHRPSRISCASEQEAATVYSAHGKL

Compound	thioester hydrolysis, HPLC UV 300 nm (NosK)	other results
Nc1ncnc2c1ncn2[C@@H]1O[C@H](COP(=O)(O)OP(=O)(O)OP(=O)(O)O)[C@@H](O)[C@H]1O [ATP]	–	LC-HR-MS detection of MIA-AMP (4) (NosI; MIA co-substrate): LC-HR-MS analysis of the reaction mixture containing NosI, MIA and ATP clearly showed the production
Cc1cccc2[nH]c(C(=O)SCCNC(=O)CCNC(=O)[C@H](O)C(C)(C)COP(=O)(O)OP(=O)(O)OC[C@H]3O[C@@H](n4cnc5c(N)ncnc54)[C@H](O)[C@@H]3OP(=O)(O)O)c(C)c12 [DMIA-CoA]	NosK also hydrolyzes the CoA-bound MIA and DMIA thioesters with comparative efficiencies	–
Cc1c(C(=O)SCCNC(=O)CCNC(=O)[C@H](O)C(C)(C)COP(=O)(O)OP(=O)(O)OC[C@H]2O[C@@H](n3cnc4c(N)ncnc43)[C@H](O)[C@@H]2OP(=O)(O)O)[nH]c2ccccc12 [MIA-CoA]	NosK also hydrolyzes the CoA-bound MIA and DMIA thioesters with comparative efficiencies	–
Cc1c(C(=O)O)[nH]c2ccccc12 [compound 3, 3-methyl-2-indolic acid]	–	LC-HR-MS detection of MIA-AMP (4) (NosI; ATP co-substrate, MIA adenylated, then transferred to pantetheine or holo-NosJ): LC-HR-MS analysis of the reaction mixture containing NosI, MIA and ATP clearly showed the production
